Data on 20 compounds can be found in patent US5789434A, “Derivatives of substituted 4-biarylbutyric acid as matrix metalloprotease inhibitors” (priority 1995, dated 1998).

Common to all, as to format: biochemical
Assay [1] addresses T1, MMP-3 (Homo sapiens, UniProt P08254).
T1 construct: Truncated Prostromelysin-257 was expressed in a soluble form in E.coli; made in house; host or cells: E. coli
The assay can be described thus: Automated MMP Profiling Assay, MMP-3 fluorogenic. The settings on record: for IC50: 96-well automated, P218. The source says:
This assay with each invention compound was run with the three enzymes MMP-3, MMP-9 and MMP-2 in parallel as adapted for a 96-well microtitre plate using a Hamilton A® workstation.

In assay [2] the target is T2, MMP-9 (Homo sapiens, UniProt P14780).
T2 construct: from tissue; host or cells: human polymorphonuclear leukocytes (PMN) from whole blood (New York Blood Center), PMA-stimulated supernatant
Briefly: Automated MMP Profiling Assay, MMP-9 fluorogenic. The note with it: for IC50: 96-well automated, P218.

Assay [3] addresses T3, MMP-2 (Homo sapiens, UniProt P08253).
T3 sequence (P08253 110-660): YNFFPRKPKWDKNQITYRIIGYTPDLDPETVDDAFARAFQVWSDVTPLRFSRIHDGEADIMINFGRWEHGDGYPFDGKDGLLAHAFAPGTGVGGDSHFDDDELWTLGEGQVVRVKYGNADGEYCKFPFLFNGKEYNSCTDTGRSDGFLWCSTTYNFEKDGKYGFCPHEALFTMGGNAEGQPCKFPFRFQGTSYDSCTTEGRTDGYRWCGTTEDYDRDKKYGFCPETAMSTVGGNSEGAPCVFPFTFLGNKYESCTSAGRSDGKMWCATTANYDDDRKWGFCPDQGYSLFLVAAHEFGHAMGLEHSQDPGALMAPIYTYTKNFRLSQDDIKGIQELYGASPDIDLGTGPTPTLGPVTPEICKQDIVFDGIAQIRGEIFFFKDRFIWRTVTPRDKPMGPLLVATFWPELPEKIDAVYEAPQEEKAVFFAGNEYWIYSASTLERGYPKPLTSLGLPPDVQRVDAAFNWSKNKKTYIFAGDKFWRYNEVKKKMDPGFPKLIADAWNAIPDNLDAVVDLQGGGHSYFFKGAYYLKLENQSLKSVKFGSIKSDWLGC
Briefly: Automated MMP Profiling Assay, MMP-2 fluorogenic. The note with it: for IC50: 96-well automated, P218, read-out: MMP-2 Fluorogenic IC50 (profiling).

T1 sequence (P08254 100-274 limits assumed): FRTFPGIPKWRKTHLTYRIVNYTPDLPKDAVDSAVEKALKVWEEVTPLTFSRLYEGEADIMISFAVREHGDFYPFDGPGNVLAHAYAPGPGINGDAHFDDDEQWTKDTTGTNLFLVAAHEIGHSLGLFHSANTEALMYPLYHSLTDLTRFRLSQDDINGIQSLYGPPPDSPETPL
T2 sequence (P14780 107-707 limits assumed): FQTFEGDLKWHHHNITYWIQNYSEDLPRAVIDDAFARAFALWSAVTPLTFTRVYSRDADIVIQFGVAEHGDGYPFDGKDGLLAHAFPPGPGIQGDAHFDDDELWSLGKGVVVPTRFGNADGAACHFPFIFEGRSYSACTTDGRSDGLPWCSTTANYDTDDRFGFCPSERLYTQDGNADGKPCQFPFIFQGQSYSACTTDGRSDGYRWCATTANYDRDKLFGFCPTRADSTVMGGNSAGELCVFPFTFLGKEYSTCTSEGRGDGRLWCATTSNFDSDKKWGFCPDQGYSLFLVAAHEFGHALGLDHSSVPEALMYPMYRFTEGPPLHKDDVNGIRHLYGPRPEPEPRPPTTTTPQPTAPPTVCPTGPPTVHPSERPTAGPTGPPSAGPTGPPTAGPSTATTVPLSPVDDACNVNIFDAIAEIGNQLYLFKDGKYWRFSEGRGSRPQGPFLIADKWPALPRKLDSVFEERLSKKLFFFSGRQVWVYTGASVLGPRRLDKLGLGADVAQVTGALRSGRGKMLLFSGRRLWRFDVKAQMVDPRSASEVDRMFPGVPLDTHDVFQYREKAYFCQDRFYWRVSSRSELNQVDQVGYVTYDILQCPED

As a reminder, the IC50 is the concentration that gives 50% inhibition. In the case of `C#Cc1ccc(-c2ccc(C(=O)CC(CCCc3ccccc3)C(=O)O)cc2)cc1` (stereo not drawn) [Example 351, [1,1'-Biphenyl]-4-butanoic acid, 4'-ethynyl-γ-oxo-α-(3-phenylpropyl)-], the IC50 in assay [1] is 0.107 µM; in assay [2], 0.151 µM; in assay [3], 0.05 µM.

A word on the inhibition: it is the drop in the measured response relative to a control, in per cent. A higher inhibition goes with strong suppression. Take `CCCCCCCCCCOc1ccc(-c2ccc(C(=O)CC(CCCc3ccccc3)C(=O)O)cc2)cc1` (stereo not drawn) [Example 108, [1,1'-Biphenyl]-4-butanoic acid, 4'-(decyloxy)γ-oxo-α-(3-phenylpropyl)-]: the values for the inhibition at 5 µM in assay [1], in assay [2] and in assay [3] were 8%, 4% and 16%, respectively.

`O=C(O)C1=CCCC1C(=O)c1ccc(-c2ccc(Cl)cc2)cc1` (stereo not drawn) [Example 439, 1-Cyclopentene-1-carboxylic acid, 5-[(4'-chloro[1,1'-biphenyl]-4-yl)carbonyl]-]: the figures for the inhibition at 5 µM in assay [1], in assay [2] and in assay [3] were 0%, 3% and 24%, respectively.

As for `O=C(c1ccc(-c2ccc(Cl)cc2)cc1)[C@H]1CCN(C(=O)Cc2ccccc2)[C@@H]1C(=O)O` [Example 170, L-Proline, 3-[(4'-chloro[1,1'-biphenyl]-4-yl)carbonyl]-1-(phenylacetyl)-, trans-], the half-maximal inhibitory concentration (IC50) in assay [1] was 0.296 µM; in assay [2] it was 1.8 µM; in assay [3], 0.103 µM.

Consider `CCOc1ccc(-c2ccc(C(=O)CC(CCc3ccccc3)C(=O)O)cc2)cc1` (stereo not drawn) [Example 156, [1,1'-Biphenyl]-4-butanoic acid, 4'-ethoxy-γ-oxo-α-(2-phenylethyl)-], for which the IC50 in assay [1] was determined as 0.126 µM; in assay [2], 0.145 µM; in assay [3], 0.021 µM.

Consider `COc1cccc2c1C(=O)N(CCC(CC(=O)c1ccc(-c3ccc(Cl)cc3)cc1)C(=O)O)C2=O` (stereo not drawn) [Example 423, 2H-Isoindole-2-butanoic acid, α-[2-(4'chloro[1,1'-biphenyl]-4-yl)-2-oxoethyl]-1,3-dihydro-4-methoxy-1,3-dioxo-], for which the figures for the IC50 in assay [1], in assay [2] and in assay [3] were 0.019 µM, 0.0061 µM and 0.015 µM, respectively.

In the case of `COC(=O)c1cc(F)ccc1SCC(CC(=O)c1ccc(-c2ccc(Cl)cc2)cc1)C(=O)O` (stereo not drawn) [Example 434, [1,1'-Biphenyl]-4-butanoic acid, 4'-chloro-α-[[[4-fluoro-2-(methoxycarbonyl)phenyl]thio]methyl]-γ-oxo-], the figures for the IC50 in assay [1], in assay [2] and in assay [3] were 0.254 µM, 1.14 µM and 0.061 µM, respectively.

For `O=C(O)[C@H]1CN(C(=O)OCc2ccccc2)C[C@@H]1C(=O)c1ccc(-c2ccc(Cl)cc2)cc1` (relative stereo) [Example 174, 1,3-Pyrrolidinecarboxylic acid, 4-[(4'-chloro[1,1'-biphenyl]-4-yl)carbonyl]-1,-(phenylmethyl) ester, trans-], the half-inhibitory concentration (IC50) in assay [1] is 0.144 µM; in assay [2], 0.522 µM; in assay [3], 0.056 µM.

In the case of `CN(C)C(=O)c1ccccc1SCC(CC(=O)c1ccc(-c2ccc(Cl)cc2)cc1)C(=O)O` (stereo not drawn) [Example 436, [1,1'-Biphenyl]-4-butanoic acid, 4'-chloro-α-[[[2-[(dimethylamino)carbony]phenyl]thio]methyl]-γ-oxo-], the half-maximal inhibitory concentration (IC50) was determined as 0.158 µM in assay [1], 0.519 µM in assay [2] and 0.286 µM in assay [3].

For `COC(=O)c1ccccc1C(=O)OC[C@@H]1CC[C@H](C(=O)c2ccc(-c3ccc(Cl)cc3)cc2)[C@H]1C(=O)O` (relative stereo) [Example 368], the IC50 in assay [1] was 0.036 µM; in assay [2], 0.03 µM; in assay [3], 0.031 µM.

Take `Cc1ccccc1C(=O)OC[C@@H]1CC[C@H](C(=O)c2ccc(-c3ccc(Cl)cc3)cc2)[C@H]1C(=O)O` (relative stereo) [Example 378, Benzoic acid, 2-methyl-, [2-carboxy-3-[(4'-chloro[1,1'-biphenyl]-4-yl)carbonyl]cyclopentyl]methyl ester, (1α,2β,3α)-]: the concentration for half-maximal inhibition (IC50) in assay [1] came to 0.077 µM; in assay [2] it was 0.083 µM; in assay [3] it was 0.043 µM.

On to `COc1ccccc1C(=O)OC[C@@H]1CC[C@H](C(=O)c2ccc(-c3ccc(Cl)cc3)cc2)[C@H]1C(=O)O` (relative stereo) [Example 381, Benzoic acid, 2-methoxy-, [2-carboxy-3-[(4'-chloro[1,1'-biphenyl]-4-yl)carbonyl]cyclopentyl]methyl ester, (1α,2β,3α)-], for which the 50% inhibitory concentration (IC50) is 0.046 µM in assay [1], 0.097 µM in assay [2] and 0.044 µM in assay [3].

Turning to `O=C(c1ccc(-c2ccc(Cl)cc2)cc1)[C@H]1CCN(C(=O)CCc2ccccc2)[C@@H]1C(=O)O` [Example 169, L-Proline, 3-[(4'-chloro[1,1'-biphenyl]-4-yl)carbonyl]-1-(1-oxo-3-phenylpropyl)-, trans-], the values for the IC50 in assay [1], in assay [2] and in assay [3] were 0.245 µM, 1.08 µM and 0.08 µM, respectively.

Regarding `CCN(CC)C(=O)c1cccc(CC[C@H](CC(=O)c2ccc(-c3ccc(Cl)cc3)cc2)C(=O)O)c1` [Example 146], the 50% inhibitory concentration (IC50) amounted to 2.4 µM in assay [1], 2.71 µM in assay [2] and 0.538 µM in assay [3].

For the compound `CCCCCOc1ccc(-c2ccc(C(=O)CC(CCc3cccc(I)c3)C(=O)O)cc2)cc1` (stereo not drawn) [Example 162, [1,1'-Biphenyl]-4-butanoic acid, α-[2-(3-iodophenyl)ethyl]-γ-oxo-4'-(pentyloxy)-], the figures for the concentration for half-maximal inhibition (IC50) in assay [1] and in assay [3] were 0.181 µM and 0.022 µM, respectively. Further, the inhibition at 5 µM in assay [2] was 8%.

Regarding `COC(=O)c1cccc(SCC(CC(=O)c2ccc(-c3ccc(Cl)cc3)cc2)C(=O)O)c1` (stereo not drawn) [Example 432, [1,1'-Biphenyl]-4-butanoic acid, 4'-chloro-α-[[[3-(methoxycarbonyl)phenyl]thio]methyl]-γ-oxo-], the IC50 in assay [1] is 1.6 µM; in assay [2], more than 1.25 µM; in assay [3], 0.236 µM.

With `O=C(CC(CCc1ccccc1)C(=O)O)c1ccc(-c2ccc(O)cc2)cc1` (stereo not drawn) [Example 155, [1,1'-Biphenyl]-4-butanoic acid, 4'-hydroxy-γ-oxo-α-(2-phenylethyl)-], the IC50 in assay [1] was 0.777 µM; in assay [2] it was more than 1.25 µM; in assay [3], 0.05 µM.

Take `O=C(CC(CCc1cccc(I)c1)C(=O)O)c1ccc(-c2ccc(OCc3ccccc3)cc2)cc1` (stereo not drawn) [Example 163, [1,1'-Biphenyl]-4-butanoic acid, α-[2-(3-iodophenyl)ethyl]-γ-oxo-4'-(phenylmethoxy)-]: the half-inhibitory concentration (IC50) in assay [1] was determined as 0.064 µM; in assay [3], 0.017 µM. Testing at 5 µM in assay [2] gave an inhibition of 18%.

In the case of `O=C(CC(CCCCN1C(=O)c2ccccc2C1=O)C(=O)O)c1ccc(-c2ccc(Cl)cc2)cc1` (stereo not drawn) [Example 431, 2H-Isoindole-2-hexanoic acid, α[2-(4'-chloro[1,1'-biphenyl]-4-yl)-2-oxoethyl]-1,3-dihydro-1,3-dioxo-], the IC50 stood at 0.038 µM in assay [1], 0.05 µM in assay [2] and 0.016 µM in assay [3].

As for `O=C(CC(CCN1C(=O)c2ccccc2C1=O)C(=O)O)c1ccc(-c2ccc(OCc3ccccc3)cc2)cc1` (stereo not drawn) [Example 271, 2H-Isoindole-2-butanoic acid, 1,3-dihydro-1,3-dioxo-α-[2-oxo-2-[4'-(phenylmethoxy)[1,1'-biphenyl]-4-yl]ethyl]-], the IC50 in assay [1] turned out to be 0.0052 µM; in assay [2], 0.0079 µM; in assay [3] it was 0.0014 µM.
